Where two headings read alike, the source gives them in different places.
Legend:
[1] = test system: Trypanosoma cruzi; assay: TC cellular growth inhibition; type: cell-based
[2] = molecular target: I105F mutant of TCCYP51 (Trypanosoma cruzi, UniProt Q7Z1V1, I105F); type: binding
[3] = molecular target: T1, TCCYP51 (Trypanosoma cruzi, UniProt Q7Z1V1); type: binding; details: for spectral response: TCCYP51
[4] = molecular target: TBCYP51 (Trypanosoma brucei brucei, UniProt Q385E8); type: binding
[5] = test system: Trypanosoma brucei; assay: TB cellular growth inhibition; type: cell-based; details: read-out: EC50 / 50% cell growth inhibition for TB, form not stated
[6] = test system: TC infected cardiomyoblasts; assay: inhibition of TC multiplication within cardiomyoblasts; type: cell-based, Trypanosoma cruzi; details: 30 µM
[7] = molecular target: T1, TCCYP51; details: cited from earlier work
[8] = molecular target: T1, TCCYP51; details: cited from earlier work; remark: listed apart in the source
[9] = molecular target: T1, TCCYP51; type: biochemical; details: T. cruzi CYP51, initial rate
[10] = test system: Trypanosoma cruzi; details: read-out: published EC50 values in TC cells; cited from earlier work

## 32-Methylene cyclopropyl-lanost-7-enol [MCP]
[1]; read-out: 50% cell growth inhibition of TC, TC, form not stated
  EC50: 3000 nM
[2]
  high spin form: 87%
  spectral response: type 1 spectral responses
[3]
  spectral response: type 1 spectral responses
[3]; TCCYP51, maximal upon titration
  high spin content (low to high spin transition in the heme iron): 41%
[4]; TBCYP51
  spectral response: type 1 spectral responses
[4]; TBCYP51, maximal upon titration
  high spin content (low to high spin transition in the heme iron): 85%
[5]
  EC50: > 50000 nM
[6]
  parasite cells cleared from TC infected cardiomyoblasts: more than 90%
[6]; 72 h, trypanosomes pre-incubated with compound
  number of intracellular parasites: dramatic decrease in the number of intracellular parasites

## CC(C)CCC[C@@H](C)[C@H]1CC[C@@]2(CN)C3=CCC4C(C)(C)[C@@H](O)CC[C@]4(C)[C@H]3CC[C@]12C (stereo partly drawn) [AL7, 4,4-dimethyl-14α-aminomethyl-cholest-7-en-3β-ol]
[7]
  I/E2 for the initial rate of TCCYP51 catalysis: 11
[8]
  spectral response: type 2 spectral responses

## CC(C)CCC[C@@H](C)[C@H]1CC[C@@]2(CN)C3=C(CC[C@]12C)[C@@]1(C)CC[C@H](O)C(C)(C)C1CC3 (stereo partly drawn) [AL8, 4,4-dimethyl-14α-aminomethyl-cholest-8-en-3β-ol]
[7]
  I/E2 for the initial rate of TCCYP51 catalysis: 14
[8]
  spectral response: type 2 spectral responses

## O=C(NC(Cn1ccnc1)c1ccccc1)c1ccc(-c2ccc(Cl)cc2)cc1 (stereo not shown) [SDZ285604]
[1]; read-out: EC50 (50% cellular growth inhibition), amastigotes (intracellular form) of TC
  EC50: < 1000 nM
[1]; read-out: EC50 (50% cellular growth inhibition), trypomastigotes (extracellular form) of TC
  EC50: < 1000 nM

## O=C(Cn1ccnc1[N+](=O)[O-])NCc1ccccc1 [benznidazole]
[3]
  spectral response: does not induce spectral changes
[9]
  I/E2 (5 min), molar ratio inhibitor/enzyme which causes a twofold decrease in the activity: 42
[10]
  EC50: 25000 to 50000 nM
